Laboratory results taken from patent US20240408053A1, “ENTERITIS-SUPPRESSING COMPOSITION” (KOBE GAKUIN EDUCATIONAL FOUNDATION, priority 2021, published 2024).

Legend:
Format in all cases: in vivo, mice
claudin-1 = assay: Immunofluorescence staining of Claudin-1 in colon tissue, 4 weeks; conditions: group ES: 2.0% v/v ethanol diet + 2.5 mg sesaminol per day oral, group E significant decrease
Experimental: (§1) Next, in order to verify the longer-term effect of oral administration of sesaminol on ethanol-induced intestinal tight junction (TJ) dysfunction and leaky gut, histological analysis of colonic epithelial TJ proteins (ZO-1, Occludin, and Claudin-1) and analysis of the plasma LPS level were performed using the mice in each group (groups C, S, E, and ES) described in Example 7. Histological analysis was performed by immunofluorescence staining with anti-ZO-1, anti-Occludin, and anti-Claudin-1 antibodies, followed by observation under a fluorescence microscope. The Plasma LPS level was measured according to the method described in Example 6.

LPS = assay: Plasma LPS level, 4 weeks; conditions: group ES: 2.0% v/v ethanol diet + 2.5 mg sesaminol per day oral, vs group E, level similar to groups C and S
Experimental: The plasma LPS concentration was measured with a limulus amebocyte lysate (LAL) assay.
as §1

occludin = assay: Western blotting of occludin in colon tissue; conditions: group ES: 2.0% v/v ethanol diet + 2.5 mg sesaminol per day oral, 2 weeks, vs group E; lower than group C
Source text: Acetaldehyde, which accumulates during ethanol metabolism, is known to disrupt intestinal tight junctions (TJs) via dissociation of colonic epithelium TJ proteins (ZO-1, occludin, and claudin-1) from the cytoskeleton. […] Therefore, whether oral administration of sesaminol would affect ethanol-induced intestinal barrier dysfunction was examined by analyzing the expression levels of colonic epithelial TJ proteins and the plasma LPS level in the mice in the four groups (groups C, S, E, and ES).
WB was performed in the same manner as in Example 4 above. The following primary antibodies were used. • Anti-mouse zonula occludens-1 protein (ZO-1) rabbit polyclonal antibody • Anti-mouse occludin rabbit polyclonal antibody • Anti-mouse claudin-1 rabbit polyclonal antibody

[1] = test system: ethanol-induced lesions in mouse colon; assay: Microscopic evaluation of colon tissue (HE, TB, PAS, MUC2 staining), 4 weeks; conditions: group ES: 2.0% v/v ethanol diet + 2.5 mg sesaminol per day oral
Experimental: In order to verify the longer-term effect of oral administration of sesaminol on ethanol-induced oxidative stress in mouse colon, the colonic epithelium of the mice in each group (groups C, E, S, and ES) described in Example 7 was HE-stained, TB-stained, and periodic-acid-Schiff (PAS)-stained and observed under a microscope (FIGS. 10(A),(B), and (C)). Immunostaining with MUC2 polyclonal antibody was then performed (FIG. 10(D)). HE staining, TB staining, and immunostaining with MUC2 polyclonal antibody were performed in the same manner as in Example 2.
Colon tissue samples were each fixed in a 10% v/v neutral formaldehyde solution overnight at room temperature and paraffin-embedded. The colon tissue sections were then stained with PAS staining reagent for the detection of goblet cells. Each stained specimen was observed under a microscope and subjected to image analysis.

[2] = test system: ethanol-induced lesion in mouse colon; assay: Microscopic evaluation of ethanol-induced lesion in mouse colon (HE, TB, MUC2 staining), 2 weeks
[3] = group ES: 2.0% v/v ethanol diet + 2.5 mg sesaminol per day oral, vs group E

Oc1cc2c(cc1C1OCC3C(c4ccc5c(c4)OCO5)OCC13)OCO2 (stereo not shown) [Sesaminol]
protein level of Claudin-1 in colon tissue (fluorescence microscope observation) (claudin-1): improvement in all of those levels | plasma LPS concentration (LPS): significant and considerable decrease in the plasma LPS concentration compared with group E | expression level of occludin (occludin): significantly higher than those in group E | histological image of colon tissue (epithelium atrophy, goblet cells, mucus-secreting cells) [1]: tendency of returning to the histological image of group C | degree of lesion in colonic epithelium [2, 3]: smaller degree of lesion compared with that observed in group E | microscopic lesion score of colon tissue [2, 3]: significantly lower than that of group E | lesions in colonic epithelium ([2]; group S: 2.5 mg sesaminol per day oral, no ethanol): No obvious lesions
